Results published in patent US9044476B2, “Use of uraria in promoting osteogenesis or providing neuroprotection” (TAIPEI MEDICAL UNIVERSITY, priority 2013, dated 2015).

How the values were obtained:
Format in all cases: cell-based, human
HOb cells [1] = test: Alkaline phosphatase (ALP) assay in HOb cells; conditions: compounds 100 μM, 72 h
Experimental: (§1) HOb cells were seeded in 96-well plates. Twenty-four hours after plating, the old medium was discarded and the cells were treated with tested extracts (100 μg/ml) in Osteoblast Differentiation Medium for 72 h. ALP activity was assessed using the p-nitrophenyl phosphate disodium substrate. Data are shown as mean±SD (n=3). *P<0.05 and **P<0.01 as compared with control (n=3).
as §1, with “compounds” for “extracts”, “μM)” for “μg/ml)”
(§2) Human osteoblasts (HOb) were primary cells derived from a person from a normal femoral bone and obtained from Cell Applications (San Diego, Calif., USA). HOb cells were grown in Osteoblast Growth Medium and maintained at 37° C. in 5% CO2 humidified atmosphere. The medium was changed every other day. To maintain exponential growth, the cells were subcultured every 7 days. HOb cells were used for cell viability, differentiation, and mineralization assays.
The alkaline phosphatase (ALP) activities of U. crinita extract and its constituents were measured with p-nitrophenyl phosphate as the substrate. HOb cells were seeded in 96-well plates at a density of 4×10^3 cells per well. Twenty-four hours after plating, the old medium was discarded and the cells were treated with tested extracts or compounds in Osteoblast Differentiation Medium. After 72 hours incubation, the medium was discarded and the cells rinsed twice with cold PBS, and cells were lysed with lysis buffer (PBS containing 0.1% Triton X-100). The cellular protein concentration in supernatant was determined after incubation with BCA (bicinchoninic acid) protein reagent for 1 hour at 37° C. The reaction was stopped by adding 1M NaOH, and absorbance measured at 560 nm. Furthermore, the ALP activity in supernatant was assayed by incubation for 1 hour at 37° C. in 0.1 M NaHCO3—Na2CO3 buffer, pH 10, containing 0.1% Triton X-100, 2 mM MgSO4, and 6 mM p-nitrophenyl phosphate. The reaction was stopped by adding 1M NaOH and absorbance was measured at 405 nm. Each value was normalized to the protein concentration.

HOb cells [2] = test: Mineralized matrix formation assay (Alizarin Red-S) in HOb cells; conditions: for formation of mineralized bone nodules: compounds 100 μM, 12 days
Experimental: (§3) HOb cells were plated in 24-well plates. Three days after plating, the old medium was discarded and the cells were treated with tested extracts (100 μg/ml) in mineralizing media (Osteoblast Differentiation Medium containing ascorbic acid (50 μg/ml) and β-glycerophosphate (10 mM) for 12 days. At the end of experiment, cultures were fixed in 75% ethanol, and mineralized nodule formation was assessed by Alizarin Red-S staining. The bound staining was eluted with a solution of 10% cetylpyridinium chloride and quantified using a microtiter plate reader. Data are shown as mean±SD (n=3). *P<0.05 and **P<0.01 as compared with control (n=3).
as §3, with “tested compounds” for “tested extracts”, “(100 μM)” for “(100 μg/ml)”, “Differentiation Medium)” for “Differentiation Medium”
as §2
The mineralization activities of U. crinita extract and its constituents were measured by Alizarin Red-S staining of calcium. HOb cells were seeded in 24-well plates at a density of 7×10^4 cells per well. Three days after plating, the old medium was discarded and the cells were treated with tested extracts or compounds in mineralizing media (Osteoblast Differentiation Medium) containing ascorbic acid (50 μg/ml) and β-glycerophosphate (10 mM) for 12 days. At the end of experiment, cultures were fixed in 75% ethanol, and calcium deposits were stained for 15 minutes at room temperature with Alizarin Red-S solution (40 mM, pH 4.2). The bound staining was eluted with a solution of 10% (w/v) cetylpyridinium chloride in 10 mM sodium phosphate (pH 7.0) and quantified using a ELISA reader at 550 nm.

HOb cells [3] = test: Cell viability (MTT) assay in HOb cells; conditions: 100 μM, 72 hours
Experimental: as §1, with “compounds” for “extracts”, “μM)” for “μg/ml)”, “Cell viability” for “ALP activity”, “MTT assay.” for “p-nitrophenyl phosphate disodium substrate.”
as §2, with “HOb cells were used for cell viability, differentiation, and mineralization assays.” left out
The cell viability of U. crinita extract and its constituents were determined using the MTT assay as described elsewhere (Scudiero et al., 1988). […] The absorbance at 600 nm was recorded using an ELISA reader. […]

SMILES	ALP activity (HOb cells [1])	formation of mineralized bone nodules (HOb cells [2])	mineralization activity, ranking in words (HOb cells [2]; isolated compounds, 100 μM)	cell viability (HOb cells [3])
O=C1c2c(O)cc(O)cc2OCC1c1ccc(O)cc1O (stereo not shown) [Compound 1, dalbergioidin]	114.10±4.41%	107.09±2.80%		
Nc1ncnc2c1ncn2[C@@H]1O[C@H](CO)[C@@H](O)[C@H]1O [Compound 7, adenosine]	108.70±4.14%	125.21±3.75%		
CC1=CC(=O)CC(C)(C)[C@H]1CC[C@@H](C)O[C@@H]1O[C@H](CO)[C@@H](O)[C@H](O)[C@H]1O [Compound 9, byzantionoside B]	114.81±0.18%	129.21±6.13%		
O=c1cc(-c2ccc(O)cc2)oc2cc(O)c(C3OCC(O)C(O)C3OC3OCC(O)(CO)C3O)c(O)c12 (stereo not shown) [Compound 3]	109.68±2.20%	150.10±0.80%	most potent mineralization activity	
N[C@@H](Cc1c[nH]c2ccccc12)C(=O)O [Compound 5, tryptophan]				80.43±1.11%
